Measurements reported in patent publication US20120065123A1, “Synthetic Antibodies” (priority 2009, published 2012).
Read-outs that look alike come from different tables or passages of the source. Where no end group is shown, it is not given here. The star is where a group is joined. StBu = CC(C)(C)S*

Legend:
Format in all cases: binding
Transferrin [1] = biological target: T1, Transferrin (Homo sapiens, UniProt P02787); experiment: SPR steady state affinity of mRNA display clones (Biacore T100); details: for Kd: steady state affinity model
Description: Five clones (see Table 15) were selected, synthesized and purified by HPLC for characterization by surface plasmon resonance (SPR) (T 100 instrument from Biacore). Transferrin was immobilized using standard NHS/EDC immobilization chemistry according to the methods described in Frostell-Karlsson, A., Remaeus, A., Andersson, K., Borg, P., Hamalainen, M., and Karlsson, R. (2000) J. Med. Chem. 43, resulting in 9758 RU of immobilized protein. HPLC purified peptides were injected over the surface and sensograms were recorded at multiple concentrations (32, 16, 8, 4, 2, 1, 0.5, 0.25, 0.125, and 0.0625 μM). Affinity plots were generated for each peptide and fit using a steady state affinity model.

Transferrin [2] = biological target: T1, Transferrin; experiment: Peptide microarray ranking, labeled transferrin with E. coli lysate competitor; details: for Rank -- prewash: array with organic prewash; for Rank - non-prewash: array without organic prewash
Description: Several polypeptides were identified as candidate affinity elements for synbodies against an arbitrarily chosen protein target, transferrin, by incubating transferrin on the polypeptide microarray in the presence of E. coli lysate competitor. Transferrin was randomly direct-labeled at free amines with Alexa™ 555, and E. coli lysate was randomly direct-labeled at free amines with Alexa™ 647. Three replicate arrays were passivized by applying a mixture of BSA and mercaptohexanol for one hour. The arrays were blocked with unlabelled E. coli lysate for one hour, then washed three times with TBST (0.05% Tween) followed by three times with water. A mixture of labeled transferrin and labeled E. coli lysate was applied to the three replicate arrays and incubated for three hours. The arrays were again washed three times with TBST (0.05% Tween) followed by three times with water, and scanned at 555 nm and 647 nm using an array reader. Polypeptides were ranked as candidates for inclusion as affinity elements of synbodies by computing a score for each polypeptide equal to the mean raw 555 nm intensity over the six replicate features, squared, divided by the mean raw 647 nm intensity over the six replicate features. This simple scoring function tends to favor candidate polypeptides that bind at least moderate affinity, since otherwise the 555 nm intensity would be relatively lower, and that are relatively specific, since otherwise the 647 nm intensity would be relatively higher and contribute to a relatively lower score. Many variations of this ranking and identification process can be used, such as, by way of non-limiting examples, two-color comparisons against other competitors; comparisons with data taken in separate experiments with respect to other targets; and use of scoring functions taking into account other factors, employing other functional relationships, and/or involving statistical analysis and/or preprocessing of data and/or correcting for background fluorescence and/or other factors affecting the accuracy of the measured intensities. Ten polypeptides (Table 1) were identified for further evaluation for use as affinity elements in synbodies by choosing the polypeptides having the highest score (one polypeptide was rejected as difficult to synthesize, so the polypeptides chosen were ten of those having the eleven highest scores).
After preparation of the array in accordance with the methods previously described in Example 2, the array was washed one time for five minutes in 7.33% acetonitrile, 37% isopropanol, 0.55% trifluoroacetic acid, and 55% water. Alexa 555 labeled target protein transferrin was applied, together with Alexa 647 labeled E. coli lysate competitor, to the prewashed array and to an identical array without organic prewash. […] 5,010 on the array without organic prewash, but ranked no. 9601 on the prewashed array. Conversely, peptide TRF-21, shown by SPR analysis to be a relatively strong binder of transferrin, rose in rank from 84 on the non-prewashed array to rank no. 5 on the prewashed array.

Transferrin [3] = biological target: T1, Transferrin; experiment: SPR solution phase KD of candidate affinity elements, transferrin immobilized (Biacore T100); details: steady-state response, 25° C., PBST
Description: Transferrin 25 μg/ml in immobilization buffer selected for correct pH was then applied 302 at a flow rate of 5 to 10 μl/min for a contact time of about 5 to 10 minutes, allowing the amine functionality on the transferrin 308 to displace the activated NHS ester and bond to the surface via an amide bond. Finally, ethylene diamine (1M ethylene diamine-HCl at pH 8.5) was applied 304 at a flow rate of 5 to 10 μl/min for a contact time of about 6 to 7 minutes to deactivate any remaining reactive groups on the dextran chip surface. Flow rates and contact times are adjusted as necessary to provide the surface concentration of target desired for the intended application, and may vary by target. In general, for evaluating whether binding occurs, it is preferable to immobilize a relatively large quantity of target, and higher flow rates and/or longer contact times may be used. For determining kinetics, it is preferable to limit the amount of target immobilized so as to minimize rebinding and avidity effects, and lower flow rates and/or contact times may be used.
Candidate affinity elements for the transferrin synbody TRF19, TRF21, TRF23, TRF24, TRF25, and TRF26 were individually evaluated for solution phase KD with respect to transferrin by SPR analysis. Because the off rates for these polypeptides were very high, KD values were estimated by measuring steady-state response for at least five concentrations in a two-fold dilution series, each concentration tested in duplicate. For each experiment, response data were processed using a reference surface to correct for bulk refractive index changes and any non-specific binding. Data were also double referenced using responses from blank running buffer injections. Each experiment was conducted at 25° C. using PBST (0.01M Phosphate Buffered Saline, 0.138M NaCl, 0.0027M KCl, 0.05% surfactant Tween20, pH 7.4) as the running buffer on a Biacore T100 instrument. Analytes were injected for 60 s at a flow rate of 30 μl/min. The antigen surfaces were regenerated with 30 s consecutive pulses of NaOH/NaCl (50 mM NaOH in 1M NaCl) and Glycine (10 mM glycine-HCl, pH 2.5).

TNF-α = TNF-α (Homo sapiens, UniProt P01375); experiment: SPR of TNF1 lead and mutant peptides on captured TNF-α (Biacore A100); details: for Binding ΔG (observed): calculated from dissociation constants; for Predicted Binding ΔG: sum of component contributions, energetic additivity
From the text: Scanning Mutagenesis of the TNF1 Lead Peptide. After lead identification, the next step in the AMPLI algorithm is characterization of point mutations in the lead heteropolymer. Using short peptides makes it chemically feasible to synthesize a significant fraction of the point-mutant space, which can then be screened for enhanced point mutations. For example, all possible point mutations in the 17 randomized positions using all 20 natural amino acids could be synthesized and screened within a single 384-well plate (323 total point-mutants). However, libraries containing all 20 natural amino acids are not required for affinity optimization of protein-protein interactions. A library of TNF1 point-mutants containing all substitutions of the amino acid set {Y, A, D, S, K, N, V, W} in each of the 17 randomized positions (132 unique point-mutants) was synthesized. Tyrosine (Y), alanine (A), aspartic acid (D) and serine (S) were selected because of their effectiveness in producing high affinity interactions when substituted into the complementary-determining regions (CDRs) of synthetic antibodies (Felouse, Proceedings of the National Academy of Sciences 101(34):12467, 2004), lysine (K) was selected to balance the charge in the substitution set, asparagine (N), valine (V) and tryptophan (W) were selected to span the hydropathicity range (Kyte J & Doolittle R F, Journal of Molecular Biology 157(1):105-132, 1982). […] This concentration was used to increase the high-end dynamic range for quantifying enhancing point mutations at the expense of low-end dynamic range for quantifying detrimental point mutations.
Point-mutant libraries were prepared in 96-well stock plates From the stock plate, peptides were diluted to 50 μM concentration in Biacore HBS-EP buffer (GE Healthcare, Piscataway, N.J.) containing 1 mg/ml carboxymethyl-dextran (Sigma-Aldrich, St. Louis, Mo.) to reduce non-specific binding to the CM-5 SPR chip surface. TNF-α was captured on a CM-5 chip surface at different capture levels on spots 1, 2, 4, and 5 across all four flow cells corresponding to a 40-200 RU range of predicted Rmax binding responses. Spot 3 contained only immobilized neutravidin and served as a reference spot.
Using the prepared 96-well plates and Biacore A100 SPR instrument, four peptides were flowed separately, in parallel, through the four flow cells over all 4 TNF-α spots and the neutravidin reference spot, with a 60 second association phase and 300 second dissociation phase. SPR sensorgrams were recorded for each peptide response with all 4 TNF-α spots and the neutravidin reference spot across the four flow cells on the SPR chip. Surface regeneration was performed after every 12 injections in each flow cell with Biacore Glycine 2.5 regeneration solution (GE Healthcare, Piscataway, N.J.). Point-mutant reference subtracted, peptide molecular weight adjusted, responses at the late binding region of the sensorgram (a few seconds before dissociation) were compared to the response of the TNF1 lead
Purified point-mutant affinities were measured on the Biacore A100 using SPR equilibrium binding response across a series of peptide concentrations on an SPR chip with TNF-α captured as described above.
These sequences were synthesized and purified using standard solid-phase FMOC synthesis and HPLC purification.

[4] = biological target: Tumor Necrosis Factor-alpha (TNF-α) (Homo sapiens, UniProt P01375); experiment: Chromatographic affinity screening on protein-coupled pipette tips with MALDI readout; details: 500 nM each synbody in E. Coli Lysate
Description: The target proteins, Transferrin (TRF) and Tumor Necrosis Factor-alpha (TNF-α), were each covalently attached to pipette tips (one protein per pipette tip) containing carboxymethyl dextran matrix (Intrinsic Bioprobes, Tempe, Ariz.) using standard amine coupling chemistry. The unmodified tips were first washed with 0.5 M HCl followed by acetone. Each tip was activated using a 50 mg/mL solution of […] (CDI) in N-methyl-pyrolidone (NMP). Each tip was washed with NMP to remove excess CDI. Each protein was prepared as a 50 μg/mL solution in 100 mM sodium acetate pH 5.0 and cycled through a CDI activated tip for 30 minutes. Un-reacted CDI in the tip was then quenched with the addition of 1.5 M ethanolamine pH 8.5 and then washed extensively with HBS-N buffer. The protein-coupled tips were then stored in HBS-N buffer at 4° C. Negative control tips were prepared in the same manner except that no protein was added to the sodium acetate solution during the protein coupling step.
A library of 14 candidate synbodies (Table 9) was prepared by making 12 μM stock solutions in 1× phosphate buffered saline (PBS) of each HPLC purified synbody and […] of each stock solution was added to 600 μL of E. Coli Lysate that had been treated with a protease inhibitor. Thus the final concentration of each synbody was 500 nM.
A negative control pipette tip (blank tip), a TRF tip, and a TNF-α tip, were washed with 0.1% sodium dodecyl sulfate (SDS) to remove any non-covalently bound protein and then washed with HBS buffer. The tips were then incubated for 15 minutes in 150 μL of the synbody library. Each tip was then washed 5 times in 150 μL of HBS-N. This step was then repeated and each tip was washed 5 times in 150 μL of 0.25 M NaCl. Each tip was then washed 5 times in 150 μL of Milli-Q water and this step was repeated. […]
Each elution sample was spotted onto a MALDI plate and analyzed in reflectron mode on a Bruker Daltonics UltraFlex III TOF/TOF MALDI Mass Spectrometer.

[5] = SPR equilibrium binding response, read-out: Kd (observed)
[6] = energetic additivity of component mutations, read-out: Predicted Kd

T1 sequence (P02787 20-698): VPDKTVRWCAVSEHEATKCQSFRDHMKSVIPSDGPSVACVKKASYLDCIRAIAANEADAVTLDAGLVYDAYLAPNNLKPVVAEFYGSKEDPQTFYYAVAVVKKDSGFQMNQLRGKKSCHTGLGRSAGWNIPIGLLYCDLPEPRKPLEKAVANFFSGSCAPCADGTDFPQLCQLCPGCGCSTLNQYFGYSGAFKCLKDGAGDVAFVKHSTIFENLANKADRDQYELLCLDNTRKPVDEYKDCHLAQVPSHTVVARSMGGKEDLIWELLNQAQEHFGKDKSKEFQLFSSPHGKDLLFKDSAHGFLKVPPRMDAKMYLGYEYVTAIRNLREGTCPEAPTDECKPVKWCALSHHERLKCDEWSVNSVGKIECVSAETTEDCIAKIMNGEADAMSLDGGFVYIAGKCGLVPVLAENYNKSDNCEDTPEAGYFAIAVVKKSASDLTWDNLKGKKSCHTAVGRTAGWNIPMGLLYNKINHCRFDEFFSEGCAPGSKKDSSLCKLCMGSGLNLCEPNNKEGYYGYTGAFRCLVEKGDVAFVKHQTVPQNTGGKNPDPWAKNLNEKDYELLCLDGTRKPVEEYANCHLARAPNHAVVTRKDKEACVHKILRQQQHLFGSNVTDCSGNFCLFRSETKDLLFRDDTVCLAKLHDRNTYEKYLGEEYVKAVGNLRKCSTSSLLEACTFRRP
TNF-α, sequence (P01375 77-233 limits assumed, species assumed): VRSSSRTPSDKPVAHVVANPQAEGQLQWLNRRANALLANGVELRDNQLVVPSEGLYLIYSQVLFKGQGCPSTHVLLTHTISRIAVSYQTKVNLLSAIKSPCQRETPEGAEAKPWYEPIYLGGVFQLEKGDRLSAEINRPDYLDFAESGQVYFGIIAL
Tumor Necrosis Factor-alpha (TNF-α), sequence (P01375 77-233 limits assumed, species assumed): as above

AHKVVPQRQMRHAYSRYGSC [TBPM023]
fold improvement of affinity in comparison to TRF26 (Transferrin [1]): more than 10 fold
Kd (Transferrin [1]): 11.6 µM

APYAPQQIHYWSTLGFKGSC [TRF25]
Rank -- prewash (Transferrin [2]): 603
Rank - non-prewash (Transferrin [2]): 736
Kd (Transferrin [3]): ~60 µM

FERDPLMMPWKFLQSRQGSC [Synbody S11K]
Component Binding ΔG Contribution (TNF-α): -0.82 ± 0.13 kcal/mol
Kd Fold-Change Relative to Lead (TNF-α): 3.9 ± 0.9
Kd (TNF-α; [5]): 40 ± 7.2 µM
Binding ΔG (observed) (TNF-α): -6.03 ± -.10 kcal/mol

FERDPLMMPWSFLQSRQGSC [TNF1]
Binding ΔG (observed) (TNF-α): -5.21 ± 0.07 kcal/mol

FERSYLMMPWKFLQSRQGSC [D4S + P5Y + S11K]
Kd Fold-Change Relative to Lead (TNF-α): 23 ± 3.2
observed binding energy difference to the D4S+P5Y+M7K+S11K quadruple mutant (TNF-α): -0.94 ± 0.12 kcal/mol
Kd (TNF-α; [5]): 7 ± 0.5 µM
Binding ΔG (observed) (TNF-α): -7.03 ± 0.04 kcal/mol
Kd (TNF-α; [6]): 2.8 to 5.3 µM
Predicted Binding ΔG (TNF-α): -7.38 ± 0.19 kcal/mol

FERYPLKMPWSFLQSRQGSC [D4Y + M7K]
Kd Fold-Change Relative to Lead (TNF-α): 9.4 ± 1.6
Kd (TNF-α; [5]): 17 ± 1.9 µM
Binding ΔG (observed) (TNF-α): -6.54 ± 0.07 kcal/mol
Kd (TNF-α; [6]): 8.5 to 20 µM
Predicted Binding ΔG (TNF-α): -6.66 ± 0.25 kcal/mol

FERYPLMMPWKFLQSRQGSC [D4Y + S11K]
Kd Fold-Change Relative to Lead (TNF-α): 17 ± 2.5
Kd (TNF-α; [5]): 9.3 ± 0.7 µM
Binding ΔG (observed) (TNF-α): -6.67 ± 0.05 kcal/mol
Kd (TNF-α; [6]): 8 to 15 µM

FERYPLMMPWSFLQSRQGSC [Synbody D4Y]
Component Binding ΔG Contribution (TNF-α): -0.74 ± 0.10 kcal/mol
Kd Fold-Change Relative to Lead (TNF-α): 3.6 ± 0.6
Kd (TNF-α; [5]): 44 ± 4.8 µM
Binding ΔG (observed) (TNF-α): -5.95 ± 0.06 kcal/mol

GHKVVPQRQIRHAYNRYGSC [TBPL005]
Kd (Transferrin [1]): 150 µM

GHKVVPQRQMRHAYNRNGSC [TBPL025]
Kd (Transferrin [1]): 150 µM

GQTQFAMHRFQQWYKIKGSC [TRF20]
Rank -- prewash (Transferrin [2]): 289
Rank - non-prewash (Transferrin [2]): 18

HAYKGPGDMRRFNHSGMGSC [TRF22]
Rank -- prewash (Transferrin [2]): 61
Rank - non-prewash (Transferrin [2]): 711

KEDNPGYSSEQDYNKLDGSC [TRF19]
Rank -- prewash (Transferrin [2]): 9601
Rank - non-prewash (Transferrin [2]): 5010
Rank - non-prewash (Transferrin [2]; listed as TRF-19): 5,010
Kd (Transferrin [3]): ~150 µM

LDPLFNTSIMVNWHRWMGSC [TRF27]
Rank -- prewash (Transferrin [2]): 3325
Rank - non-prewash (Transferrin [2]): 1289

QYHHFMNLKRQGRAQAYGSC [TRF21]
Rank -- prewash (Transferrin [2]): 5
Rank - non-prewash (Transferrin [2]): 84
Kd (Transferrin [3]): ~60 µM

SVKPWRPLITGNRWLNSGSC [TRF24]
Rank -- prewash (Transferrin [2]): 958
Rank - non-prewash (Transferrin [2]): 71
Kd (Transferrin [3]): ~50 µM

TNF2-TNF3-KC-stBu: lysine-linked synbody (peptide 1 SMKMVQPGHLLISYGHQGSGKC(StBu); peptide 2 RTTEMPFVFALGSVHPGGSG; not fully specified)
MALDI peak in TNF-α tip elution (retention by target) [4]: showed a peak
